# Measurements published in publication PMC4844702, “Selective inhibition of the kinase DYRK1A by targeting its folding process” (Nature Communications, 2016).
# How the values were obtained:
# NDR1 = target: T1, NDR1 (Homo sapiens, UniProt Q15208); assay: Kinase panel (Carna); assay type: biochemical
# T1 construct: purchased Carna Biosciences
# Text: (§1) Detailed information on the assay conditions is available on the website of Carna Biosciences (http://www.carnabio.com).
# RSK2 = target: T2, RSK2 (Homo sapiens, UniProt P51812); assay: Kinase panel (Carna); assay type: biochemical
# T2 construct: purchased Carna Biosciences
# JAK2 = target: T3, JAK2 (Homo sapiens, UniProt O60674); assay: Kinase panel (Carna); assay type: biochemical
# T3 construct: purchased Carna Biosciences
# Text: as §1
# BRSK2 = target: T4, BRSK2 (Homo sapiens, UniProt Q8IWQ3); assay: Kinase panel (Carna); assay type: biochemical
# T4 construct: purchased Carna Biosciences
# Text: as §1
# TNK1 = target: T5, TNK1 (Homo sapiens, UniProt Q13470); assay: Kinase panel (Carna); assay type: biochemical
# T5 construct: purchased Carna Biosciences
# Text: as §1
# FES = target: T6, FES (Homo sapiens, UniProt P07332); assay: Kinase panel (Carna); assay type: biochemical
# T6 construct: purchased Carna Biosciences
# Text: as §1
# EPHA8 = target: T7, EPHA8 (Homo sapiens, UniProt P29322); assay: Kinase panel (Carna); assay type: biochemical
# T7 construct: purchased Carna Biosciences
# Text: as §1
# MUSK = target: T8, MUSK (Homo sapiens, UniProt O15146); assay: Kinase panel (Carna); assay type: biochemical
# T8 construct: purchased Carna Biosciences
# Text: as §1
# CK2α2/β = target: T9, CK2α2/β (Homo sapiens, UniProt P19784); assay: Kinase panel (Carna); assay type: biochemical
# T9 construct: purchased Carna Biosciences
# PKACβ = target: T10, PKACβ (Homo sapiens, UniProt P22694); assay: Kinase panel (Carna); assay type: biochemical
# T10 construct: purchased Carna Biosciences
# PKD2 = target: T11, PKD2 (Homo sapiens, UniProt Q9BZL6); assay: Kinase panel (Carna); assay type: biochemical
# T11 construct: purchased Carna Biosciences
# Text: as §1
# TBK1 = target: T12, TBK1 (Homo sapiens, UniProt Q9UHD2); assay: Kinase panel (Carna); assay type: biochemical
# T12 construct: purchased Carna Biosciences
# Text: as §1
# JNK1 = target: T13, JNK1 (Homo sapiens, UniProt P45983); assay: Kinase panel (Carna); assay type: biochemical
# T13 construct: purchased Carna Biosciences
# Text: as §1
# MAP2K6_Cascade = target: T14, MAP2K6_Cascade (Homo sapiens, UniProt P52564); assay: Kinase panel (Carna); assay type: biochemical
# T14 construct: purchased Carna Biosciences
# MLK2_Cascade = target: T15, MLK2_Cascade (Homo sapiens, UniProt Q02779); assay: Kinase panel (Carna); assay type: biochemical
# T15 construct: purchased Carna Biosciences
# T15 sequence (Q02779 whole entry): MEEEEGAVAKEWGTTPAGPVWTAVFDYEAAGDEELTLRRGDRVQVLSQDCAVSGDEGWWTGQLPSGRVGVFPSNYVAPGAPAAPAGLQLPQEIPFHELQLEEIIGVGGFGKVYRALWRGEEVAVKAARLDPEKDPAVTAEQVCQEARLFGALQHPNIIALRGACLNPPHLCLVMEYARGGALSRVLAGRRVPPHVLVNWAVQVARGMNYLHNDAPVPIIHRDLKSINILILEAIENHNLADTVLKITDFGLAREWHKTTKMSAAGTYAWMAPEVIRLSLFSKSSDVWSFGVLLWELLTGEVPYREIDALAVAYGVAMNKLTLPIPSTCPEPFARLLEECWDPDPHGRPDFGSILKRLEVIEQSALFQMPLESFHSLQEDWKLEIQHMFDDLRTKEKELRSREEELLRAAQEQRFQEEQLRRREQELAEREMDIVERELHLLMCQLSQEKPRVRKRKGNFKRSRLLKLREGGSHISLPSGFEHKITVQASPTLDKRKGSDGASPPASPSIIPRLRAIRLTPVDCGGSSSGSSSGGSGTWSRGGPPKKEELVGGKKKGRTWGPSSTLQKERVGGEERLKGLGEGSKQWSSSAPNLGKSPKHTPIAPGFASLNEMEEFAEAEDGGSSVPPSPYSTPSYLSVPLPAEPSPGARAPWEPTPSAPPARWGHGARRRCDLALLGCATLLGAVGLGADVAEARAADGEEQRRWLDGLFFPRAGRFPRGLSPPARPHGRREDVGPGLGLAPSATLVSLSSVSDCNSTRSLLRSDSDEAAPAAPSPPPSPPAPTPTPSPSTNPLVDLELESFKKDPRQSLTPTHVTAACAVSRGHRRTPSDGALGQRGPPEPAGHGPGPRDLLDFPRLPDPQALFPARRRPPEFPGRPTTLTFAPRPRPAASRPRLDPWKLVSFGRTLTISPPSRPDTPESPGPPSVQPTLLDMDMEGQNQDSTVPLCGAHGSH
# Text: as §1
# PAK6 = target: T16, PAK6 (Homo sapiens, UniProt Q9NQU5); assay: Kinase panel (Carna); assay type: biochemical
# T16 construct: purchased Carna Biosciences
# Text: as §1
# CK2α1/β = target: T17, CK2α1/β (Homo sapiens, UniProt P68400); assay: Kinase panel (Carna); assay type: biochemical
# T17 construct: purchased Carna Biosciences
# PKCζ = target: T18, PKCζ (Homo sapiens, UniProt Q05513); assay: Kinase panel (Carna); assay type: biochemical
# T18 construct: purchased Carna Biosciences
# Text: as §1
# MARK3 = target: T19, MARK3 (Homo sapiens, UniProt P27448); assay: Kinase panel (Carna); assay type: biochemical
# T19 construct: purchased Carna Biosciences
# Text: as §1
# CDK2/CycE1 = target: T20, CDK2/CycE1 (Homo sapiens, UniProt P24941); assay: Kinase panel (Carna); assay type: biochemical
# T20 construct: purchased Carna Biosciences
# Text: as §1
# NEK6 = target: T21, NEK6 (Homo sapiens, UniProt Q9HC98); assay: Kinase panel (Carna); assay type: biochemical
# T21 construct: purchased Carna Biosciences
# AKT1 = target: T22, AKT1 (Homo sapiens, UniProt P31749); assay: Kinase panel (Carna); assay type: biochemical
# T22 construct: purchased Carna Biosciences
# Text: as §1
# WNK1 = target: T23, WNK1 (Homo sapiens, UniProt Q9H4A3); assay: Kinase panel (Carna); assay type: biochemical
# T23 construct: purchased Carna Biosciences
# Text: as §1
# other 13 kinases = assay: Endogenous kinases in intact HEK293 cells, western blot; assay type: cell-based; details: 3 days
# Text: The results are presented as means±s.d. (n=4). […] Representative data from the duplicate experiments are shown.
# NEK1 = target: T24, NEK1 (Homo sapiens, UniProt Q96PY6); assay: Kinase panel (Carna); assay type: biochemical
# T24 construct: purchased Carna Biosciences
# T24 sequence (Q96PY6 whole entry): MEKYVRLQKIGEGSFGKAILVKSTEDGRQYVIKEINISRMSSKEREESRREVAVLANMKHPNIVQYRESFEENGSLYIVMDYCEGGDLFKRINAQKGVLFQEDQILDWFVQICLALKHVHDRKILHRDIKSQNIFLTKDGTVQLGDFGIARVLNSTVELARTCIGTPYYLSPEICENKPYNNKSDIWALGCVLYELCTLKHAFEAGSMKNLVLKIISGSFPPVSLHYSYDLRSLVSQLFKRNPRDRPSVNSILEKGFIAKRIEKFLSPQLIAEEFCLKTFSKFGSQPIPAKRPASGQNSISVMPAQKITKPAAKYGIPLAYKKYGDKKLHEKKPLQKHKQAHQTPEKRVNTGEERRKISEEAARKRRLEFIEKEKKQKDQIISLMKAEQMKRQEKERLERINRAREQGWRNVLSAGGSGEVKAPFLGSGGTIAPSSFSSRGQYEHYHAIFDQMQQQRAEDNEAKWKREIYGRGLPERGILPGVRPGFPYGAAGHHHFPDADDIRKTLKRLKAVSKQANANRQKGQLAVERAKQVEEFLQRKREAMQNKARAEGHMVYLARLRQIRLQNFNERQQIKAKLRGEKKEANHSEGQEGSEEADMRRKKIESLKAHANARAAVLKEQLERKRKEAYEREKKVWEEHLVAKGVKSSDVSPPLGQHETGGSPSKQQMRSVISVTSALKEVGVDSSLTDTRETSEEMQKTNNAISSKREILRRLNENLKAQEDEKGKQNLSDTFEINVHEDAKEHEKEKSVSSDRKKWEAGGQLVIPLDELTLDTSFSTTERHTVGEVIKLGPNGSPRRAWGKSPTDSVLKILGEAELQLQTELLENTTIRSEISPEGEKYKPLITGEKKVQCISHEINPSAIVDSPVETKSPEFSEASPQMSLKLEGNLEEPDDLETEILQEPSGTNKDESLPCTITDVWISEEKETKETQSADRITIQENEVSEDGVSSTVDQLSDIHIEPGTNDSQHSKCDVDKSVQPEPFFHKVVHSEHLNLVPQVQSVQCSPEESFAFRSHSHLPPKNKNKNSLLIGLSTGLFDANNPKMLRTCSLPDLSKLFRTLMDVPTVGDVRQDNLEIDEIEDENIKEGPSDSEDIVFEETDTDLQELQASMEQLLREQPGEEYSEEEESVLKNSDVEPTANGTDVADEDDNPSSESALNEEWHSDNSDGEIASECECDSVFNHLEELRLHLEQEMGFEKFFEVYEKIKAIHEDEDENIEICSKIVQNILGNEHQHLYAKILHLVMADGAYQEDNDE
# Text: as §1
# MAP4K2 = target: T25, MAP4K2 (Homo sapiens, UniProt Q12851); assay: Kinase panel (Carna); assay type: biochemical
# T25 construct: purchased Carna Biosciences
# Text: as §1
# BTK = target: T26, BTK (Homo sapiens, UniProt Q06187); assay: Kinase panel (Carna); assay type: biochemical
# T26 construct: purchased Carna Biosciences
# T26 sequence (Q06187 whole entry): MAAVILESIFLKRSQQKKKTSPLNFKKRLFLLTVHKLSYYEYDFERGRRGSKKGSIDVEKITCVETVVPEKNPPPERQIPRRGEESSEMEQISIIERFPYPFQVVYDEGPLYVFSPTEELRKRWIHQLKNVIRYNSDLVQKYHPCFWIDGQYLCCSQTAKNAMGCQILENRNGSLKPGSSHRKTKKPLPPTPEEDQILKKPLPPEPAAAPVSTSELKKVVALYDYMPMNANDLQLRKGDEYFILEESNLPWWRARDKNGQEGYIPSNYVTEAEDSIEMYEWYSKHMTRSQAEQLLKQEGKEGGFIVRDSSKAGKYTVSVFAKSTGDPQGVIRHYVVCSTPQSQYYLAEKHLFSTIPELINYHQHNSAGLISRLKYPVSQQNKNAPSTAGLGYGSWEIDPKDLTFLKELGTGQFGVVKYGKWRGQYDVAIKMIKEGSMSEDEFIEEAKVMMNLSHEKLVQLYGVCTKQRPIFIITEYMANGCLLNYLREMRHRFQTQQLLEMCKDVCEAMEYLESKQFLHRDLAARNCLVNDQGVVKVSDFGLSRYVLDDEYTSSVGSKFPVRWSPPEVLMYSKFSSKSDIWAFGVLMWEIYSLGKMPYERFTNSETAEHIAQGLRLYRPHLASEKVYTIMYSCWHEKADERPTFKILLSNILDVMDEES
# Text: as §1
# MOS_Cascade = target: T27, MOS_Cascade (Homo sapiens, UniProt P00540); assay: Kinase panel (Carna); assay type: biochemical
# T27 construct: purchased Carna Biosciences
# PKCα = target: T28, PKCα (Homo sapiens, UniProt P17252); assay: Kinase panel (Carna); assay type: biochemical
# T28 construct: purchased Carna Biosciences
# MINK = target: T29, MINK (Homo sapiens, UniProt Q8N4C8); assay: Kinase panel (Carna); assay type: biochemical
# T29 construct: purchased Carna Biosciences
# T29 sequence (Q8N4C8 whole entry): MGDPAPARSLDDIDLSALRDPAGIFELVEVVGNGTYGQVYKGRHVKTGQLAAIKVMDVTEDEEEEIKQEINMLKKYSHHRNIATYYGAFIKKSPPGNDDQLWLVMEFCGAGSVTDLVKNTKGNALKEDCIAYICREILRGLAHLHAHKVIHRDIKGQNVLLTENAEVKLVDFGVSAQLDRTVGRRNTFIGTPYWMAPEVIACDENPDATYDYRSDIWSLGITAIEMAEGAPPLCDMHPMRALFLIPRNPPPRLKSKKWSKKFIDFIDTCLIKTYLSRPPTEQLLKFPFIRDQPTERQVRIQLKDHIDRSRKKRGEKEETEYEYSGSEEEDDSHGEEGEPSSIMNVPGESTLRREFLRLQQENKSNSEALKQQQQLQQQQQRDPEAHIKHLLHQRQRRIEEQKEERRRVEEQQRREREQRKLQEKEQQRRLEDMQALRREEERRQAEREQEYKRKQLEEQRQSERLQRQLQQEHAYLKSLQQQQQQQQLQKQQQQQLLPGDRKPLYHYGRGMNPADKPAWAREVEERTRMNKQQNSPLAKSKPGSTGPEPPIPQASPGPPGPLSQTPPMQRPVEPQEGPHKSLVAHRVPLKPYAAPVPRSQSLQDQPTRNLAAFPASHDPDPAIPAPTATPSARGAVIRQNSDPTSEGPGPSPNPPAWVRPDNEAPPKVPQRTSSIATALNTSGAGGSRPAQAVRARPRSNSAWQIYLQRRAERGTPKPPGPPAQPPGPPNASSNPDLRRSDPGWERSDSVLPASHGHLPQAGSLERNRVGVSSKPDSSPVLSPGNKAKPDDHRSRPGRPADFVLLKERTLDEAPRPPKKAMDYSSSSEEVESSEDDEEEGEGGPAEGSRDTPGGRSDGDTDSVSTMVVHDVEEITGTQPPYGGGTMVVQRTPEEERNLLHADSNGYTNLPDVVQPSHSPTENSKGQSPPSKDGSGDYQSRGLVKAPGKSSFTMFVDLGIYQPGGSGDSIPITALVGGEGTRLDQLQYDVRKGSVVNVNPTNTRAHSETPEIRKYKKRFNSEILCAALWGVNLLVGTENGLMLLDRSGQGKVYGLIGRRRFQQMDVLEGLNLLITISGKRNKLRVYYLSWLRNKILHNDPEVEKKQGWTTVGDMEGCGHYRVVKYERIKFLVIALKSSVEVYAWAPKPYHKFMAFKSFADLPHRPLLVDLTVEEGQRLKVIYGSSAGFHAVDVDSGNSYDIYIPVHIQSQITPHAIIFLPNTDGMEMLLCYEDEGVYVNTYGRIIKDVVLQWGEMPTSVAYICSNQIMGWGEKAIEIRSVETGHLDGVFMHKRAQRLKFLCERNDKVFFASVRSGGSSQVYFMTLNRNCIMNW
# Text: as §1
# JNK2 = target: T30, JNK2 (Homo sapiens, UniProt P45984); assay: Kinase panel (Carna); assay type: biochemical
# T30 construct: purchased Carna Biosciences
# PKACα = target: T31, PKACα (Homo sapiens, UniProt P17612); assay: Kinase panel (Carna); assay type: biochemical
# T31 construct: purchased Carna Biosciences
# PLK3 = target: T32, PLK3 (Homo sapiens, UniProt Q9H4B4); assay: Kinase panel (Carna); assay type: biochemical; details: 10 µM FINDY
# T32 construct: purchased Carna Biosciences
# AurA = target: T33, AurA (Homo sapiens, UniProt O14965); assay: Kinase panel (Carna); assay type: biochemical
# T33 construct: purchased Carna Biosciences
# Text: as §1
# WNK3 = target: T34, WNK3 (Homo sapiens, UniProt Q9BYP7); assay: Kinase panel (Carna); assay type: biochemical
# T34 construct: purchased Carna Biosciences
# Text: as §1
# PBK = target: T35, PBK (Homo sapiens, UniProt Q96KB5); assay: Kinase panel (Carna); assay type: biochemical
# T35 construct: purchased Carna Biosciences
# Text: as §1
# ITK = target: T36, ITK (Homo sapiens, UniProt Q08881); assay: Kinase panel (Carna); assay type: biochemical
# T36 construct: purchased Carna Biosciences
# Text: as §1
# NEK4 = target: T37, NEK4 (Homo sapiens, UniProt P51957); assay: Kinase panel (Carna); assay type: biochemical
# T37 construct: purchased Carna Biosciences
# MER = target: T38, MER (Homo sapiens, UniProt Q12866); assay: Kinase panel (Carna); assay type: biochemical
# T38 construct: purchased Carna Biosciences
# Text: as §1
# ROCK1 = target: T39, ROCK1 (Homo sapiens, UniProt Q13464); assay: Kinase panel (Carna); assay type: biochemical
# T39 construct: purchased Carna Biosciences
# PKCβ2 = target: T40, PKCβ2 (Homo sapiens, UniProt P05771); assay: Kinase panel (Carna); assay type: biochemical
# T40 construct: purchased Carna Biosciences
# T40 sequence (P05771 1-673 isoform P05771-2): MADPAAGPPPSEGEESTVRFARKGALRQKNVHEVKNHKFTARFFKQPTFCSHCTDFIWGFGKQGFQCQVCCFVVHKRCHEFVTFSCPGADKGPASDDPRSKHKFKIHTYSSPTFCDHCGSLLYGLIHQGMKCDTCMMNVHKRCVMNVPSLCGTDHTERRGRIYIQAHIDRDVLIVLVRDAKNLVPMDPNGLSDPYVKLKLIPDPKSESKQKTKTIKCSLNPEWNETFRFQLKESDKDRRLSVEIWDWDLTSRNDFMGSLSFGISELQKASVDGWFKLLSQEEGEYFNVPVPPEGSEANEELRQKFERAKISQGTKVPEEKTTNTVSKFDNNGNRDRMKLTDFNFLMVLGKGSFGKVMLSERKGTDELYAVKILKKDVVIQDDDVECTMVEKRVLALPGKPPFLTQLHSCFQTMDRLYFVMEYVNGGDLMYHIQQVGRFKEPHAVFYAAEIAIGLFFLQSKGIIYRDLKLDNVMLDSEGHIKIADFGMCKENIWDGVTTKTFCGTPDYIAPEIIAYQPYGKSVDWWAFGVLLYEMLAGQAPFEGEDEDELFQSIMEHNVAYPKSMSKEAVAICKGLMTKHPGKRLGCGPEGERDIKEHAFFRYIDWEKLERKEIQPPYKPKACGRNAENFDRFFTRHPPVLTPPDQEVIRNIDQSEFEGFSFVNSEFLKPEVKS
# Text: as §1
# YES = target: T41, YES (Homo sapiens, UniProt P07947); assay: Kinase panel (Carna); assay type: biochemical
# T41 construct: purchased Carna Biosciences
# Text: as §1
# SGK3 = target: T42, SGK3 (Homo sapiens, UniProt Q96BR1); assay: Kinase panel (Carna); assay type: biochemical
# T42 construct: purchased Carna Biosciences
# IRAK1 = target: T43, IRAK1 (Homo sapiens, UniProt P51617); assay: Kinase panel (Carna); assay type: biochemical
# T43 construct: purchased Carna Biosciences
# Text: as §1
smiles,measurement,setting,value
COc1ccc(/C=C2\SC(=S)NC2=O)cc1C#C[Si](C)(C)C [FINDY],inhibition at 10 µM,NDR1,3.8%
same,inhibition at 10 µM,RSK2,39.9%
same,inhibition at 10 µM,JAK2,7.1%
same,inhibition at 10 µM,BRSK2,5.7%
same,inhibition at 10 µM,TNK1,7.3%
same,inhibition at 10 µM,FES,1.6%
same,inhibition at 10 µM,EPHA8,48.8%
same,inhibition at 10 µM,MUSK,4.1%
same,inhibition at 10 µM,CK2α2/β,72.5%
same,inhibition at 10 µM,PKACβ,65.3%
same,inhibition at 10 µM,PKD2,29.9%
same,inhibition at 10 µM,TBK1,4%
same,inhibition at 10 µM,JNK1,1.5%
same,inhibition at 10 µM,MAP2K6_Cascade,23.5%
same,inhibition at 10 µM,MLK2_Cascade,41%
same,inhibition at 10 µM,PAK6,-145%
same,inhibition at 10 µM,CK2α1/β,45.4%
same,inhibition at 10 µM,PKCζ,-6.1%
same,inhibition at 10 µM,MARK3,50.6%
same,inhibition at 10 µM,CDK2/CycE1,64.9%
same,inhibition at 10 µM,NEK6,23.6%
same,inhibition at 10 µM,AKT1,36.6%
same,inhibition at 10 µM,WNK1,12.6%
same,endogenous expression of the other 13 kinases,other 13 kinases,no alteration
same,inhibition at 10 µM,NEK1,37.3%
same,inhibition at 10 µM,MAP4K2,3.3%
same,inhibition at 10 µM,BTK,57.9%
same,inhibition at 10 µM,MOS_Cascade,60.1%
same,inhibition at 10 µM,PKCα,0.6%
same,inhibition at 10 µM,MINK,5%
same,inhibition at 10 µM,JNK2,0.4%
same,inhibition at 10 µM,PKACα,64.7%
same,inhibition at 10 µM,PLK3,76.3%
same,inhibition at 10 µM,AurA,58.7%
same,inhibition at 10 µM,WNK3,18.9%
same,inhibition at 10 µM,PBK,14.6%
same,inhibition at 10 µM,ITK,1.2%
same,inhibition at 10 µM,NEK4,6.8%
same,inhibition at 10 µM,MER,3.4%
same,inhibition at 10 µM,ROCK1,6.8%
same,inhibition at 10 µM,PKCβ2,-2.3%
same,inhibition at 10 µM,YES,6.4%
same,inhibition at 10 µM,SGK3,21.7%
same,inhibition at 10 µM,IRAK1,-1.1%
